Measurements published in patent US11345711B2, “8,9-dihydroimidazo[1,2-a]pyrimido[5,4-e]pyrimidin-5(6H)-ones” (IMPACT THERAPEUTICS (SHANGHAI), INC, priority 2016, dated 2022).
Read-outs that look alike come from different tables or passages of the source.

Assays:
Wee1 (h) = Wee1 (h) (Homo sapiens, UniProt P30291); assay: Wee1 kinase (h) detection method, [γ-33P]-ATP filter assay; assay type: biochemical
NCI-H1299 cells = assay: MTT based cell viability assay on NCI-H1299 cells; conditions: Homo sapiens, read-out: IC50, growth inhibition of NCI-H1299 cells
Method in brief: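 NCI-H1299 cells (1000/well, settled overnight) were exposed for 3 d at 37 °C, 5% CO2, to an eight-point series of 10 μM to 0.01 μM plus DMSO blank, as prepared in DMSO (final DMSO 1‰). MTT (0.5 mg/mL, 4 h) was read at 552/630/690 nm. IC50 came from sigmoidal dose-response fits of survival.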

LoVo cells = assay: MTT based cell viability assay on LoVo cells; conditions: Homo sapiens, LoVo, 72 h, 3 d, read-out: IC50, growth inhibition of LoVo cells
Method in brief: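 Inhibition of LoVo proliferation was derived as IC50 from a sigmoidal dose-response fit of cell survival. Readout was MTT (0.5 mg/mL, 4 h) with absorbance at 552/630/690 nm, after 3-day treatment at 37 °C. Eight-point series from 10 μM to 0.01 μM, DMSO control, 1% DMSO final.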

Wee1 (h), sequence (P30291 whole entry): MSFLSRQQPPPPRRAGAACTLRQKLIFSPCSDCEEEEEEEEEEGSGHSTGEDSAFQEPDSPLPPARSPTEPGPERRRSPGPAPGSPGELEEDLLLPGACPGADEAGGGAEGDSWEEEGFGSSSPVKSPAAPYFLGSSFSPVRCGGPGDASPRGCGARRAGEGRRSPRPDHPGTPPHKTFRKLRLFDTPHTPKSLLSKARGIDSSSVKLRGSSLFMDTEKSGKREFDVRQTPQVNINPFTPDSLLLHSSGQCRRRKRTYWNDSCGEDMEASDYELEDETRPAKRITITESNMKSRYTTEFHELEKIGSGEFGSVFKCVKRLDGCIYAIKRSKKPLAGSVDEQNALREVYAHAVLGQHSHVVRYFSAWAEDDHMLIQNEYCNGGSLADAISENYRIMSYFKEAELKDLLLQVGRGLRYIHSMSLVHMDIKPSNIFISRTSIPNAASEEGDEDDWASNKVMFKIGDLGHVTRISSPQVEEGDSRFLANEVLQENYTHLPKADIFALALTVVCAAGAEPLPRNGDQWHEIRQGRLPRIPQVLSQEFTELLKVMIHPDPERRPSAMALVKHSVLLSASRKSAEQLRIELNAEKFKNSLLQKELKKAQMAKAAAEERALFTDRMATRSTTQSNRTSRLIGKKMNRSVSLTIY

Row | Inh. (%) of Wee1 kinase enzyme activity (Wee1 (h); C 1 μm compound) [%] | IC50 (NCI-H1299 cells; NCI-H1299 cells) [nM] | IC50 (LoVo cells) [nM] | Inh. (%) of Wee1 kinase enzyme activity (Wee1 (h); C 0.01 μm compound) [%] | Inh. (%) of Wee1 kinase enzyme activity (Wee1 (h); C 0.1 μm compound) [%] | IC50 (NCI-H1299 cells; NCI-H1299, NCI-H1299 cells) [nM] | Compound
1 | 28 | > 10000 | > 100000 | – | – | – | C[C@@H]1CN(c2ccc(Nc3ncc4c(n3)N3CCN=C3N(c3c(F)cccc3Cl)C4=O)c(Cl)c2)C[C@H](C)N1C [Example 39, 6-(2-Chloro-6-fluorophenyl)-2-((2-chloro-4-((3S,5R)-3,4,5-trimethylpiperazin-1-yl)phenyl)amino)-8,9-dihydroimidazo[1,2-a]pyrimido[5,4-e]pyrimidin-5(6H)-one]
2 | 4 | > 10000 | > 100000 | – | – | – | CN1CCN(c2ccc(Nc3ncc4c(n3)N3CCN=C3N(c3c(F)cccc3Cl)C4=O)c(C(F)(F)F)c2)CC1 [Example 40, 6-(2-Chloro-6-fluorophenyl)-2-((4-(4-methylpiperazin-1-yl)-2-(trifluoromethyl)phenyl)amino)-8,9-dihydroimidazo[1,2-a]pyrimido[5,4-e]pyrimidin-5(6H)-one]
3 | 2 | > 10000 | > 100000 | – | – | – | C[C@@H]1CN(c2ccc(Nc3ncc4c(n3)N3CCN=C3N(c3c(F)cccc3Cl)C4=O)c(C(F)(F)F)c2)C[C@H](C)N1C [Example 41, 6-(2-Chloro-6-fluorophenyl)-2-((2-trifluoromethyl-4-((3S,5R)-3,4,5-trimethylpiperazin-1-yl)phenyl)amino)-8,9-dihydroimidazo[1,2-a]pyrimido[5,4-e]pyrimidin-5(6H)-one]
4 | 19 | > 10000 | > 100000 | – | – | – | Cc1cc(N2CCN(C)CC2)ccc1Nc1ncc2c(n1)N1CCN=C1N(c1c(F)cccc1Cl)C2=O [Example 42, 6-(2-Chloro-6-fluorophenyl)-2-((2-methyl-4-(4-methylpiperazin-1-yl)phenyl)amino)-8,9-dihydroimidazo[1,2-a]pyrimido[5,4-e]pyrimidin-5(6H)-one]
5 | 27 | > 10000 | > 100000 | – | – | – | Cc1cc(N2C[C@@H](C)N(C)[C@@H](C)C2)ccc1Nc1ncc2c(n1)N1CCN=C1N(c1c(F)cccc1Cl)C2=O [Example 43, 6-(2-Chloro-6-fluorophenyl)-2-((2-methyl-4-((3S,5R)-3,4,5-trimethylpiperazin-1-yl)phenyl)amino)-8,9-dihydroimidazo[1,2-a]pyrimido[5,4-e]pyrimidin-5(6H)-one]
6 | 93 | – | 37.1 | 23 | 75 | 597 | CN1CCN(c2ccc(Nc3ncc4c(n3)N3CCN=C3N(c3c(F)cccc3Cl)C4=O)cc2F)CC1 [Example 44, 6-(2-Chloro-6-fluorophenyl)-2-((3-fluoro-4-(4-methylpiperazin-1-yl)phenyl)amino)-8,9-dihydroimidazo[1,2-a]pyrimido[5,4-e]pyrimidin-5(6H)-one]
7 | 95 | – | 1180 | 28 | 80 | 616 | C[C@@H]1CN(c2ccc(Nc3ncc4c(n3)N3CCN=C3N(c3c(F)cccc3Cl)C4=O)cc2F)C[C@H](C)N1C [Example 45, 6-(2-Chloro-6-fluorophenyl)-2-((3-fluoro-4-((3S,5R)-3,4,5-trimethylpiperazin-1-yl)phenyl)amino)-8,9-dihydroimidazo[1,2-a]pyrimido[5,4-e]pyrimidin-5(6H)-one]
8 | 97 | – | 26.1 | 36 | 85 | 528 | CN1CCN(c2ccc(Nc3ncc4c(n3)N3CCN=C3N(c3c(F)cccc3Cl)C4=O)cc2Cl)CC1 [Example 46, 6-(2-Chloro-6-fluorophenyl)-2-((3-chloro-4-(4-methylpiperazin-1-yl)phenyl)amino)-8,9-dihydroimidazo[1,2-a]pyrimido[5,4-e]pyrimidin-5(6H)-one]
9 | 98 | 330 | 30.5 | 45 | 89 | – | C[C@@H]1CN(c2ccc(Nc3ncc4c(n3)N3CCN=C3N(c3c(F)cccc3Cl)C4=O)cc2Cl)C[C@H](C)N1C [Example 47, 2-((3-Chloro-4-((3S,5R)-3,4,5-trimethylpiperazin-1-yl)phenyl)amino)-6-(2-chloro-6-fluorophenyl)-8,9-dihydroimidazo[1,2-a]pyrimido[5,4-e]pyrimidin-5(6H)-one]
10 | 91 | – | 117 | 29 | 75 | 1120 | CN1CCN(c2ccc(Nc3ncc4c(n3)N3CCN=C3N(c3c(F)cccc3Cl)C4=O)cc2C(F)(F)F)CC1 [Example 48, 6-(2-Chloro-6-fluorophenyl)-2-((4-(4-methylpiperazin-1-yl)-3-(trifluoromethyl)phenyl)amino)-8,9-dihydroimidazo[1,2-a]pyrimido[5,4-e]pyrimidin-5(6H)-one]
11 | 95 | 543 | 96.9 | 43 | 86 | – | C[C@@H]1CN(c2ccc(Nc3ncc4c(n3)N3CCN=C3N(c3c(F)cccc3Cl)C4=O)cc2C(F)(F)F)C[C@H](C)N1C [Example 49, 6-(2-Chloro-6-fluorophenyl)-2-((3-trifluoromethyl-4-((3S,5R)-3,4,5-trimethylpiperazin-1-yl)phenyl)amino)-8,9-dihydroimidazo[1,2-a]pyrimido[5,4-e]pyrimidin-5(6H)-one]
12 | 100 | – | 58.9 | 62 | 95 | 229 | Cc1cc(Nc2ncc3c(n2)N2CCN=C2N(c2c(F)cccc2Cl)C3=O)ccc1N1CCN(C)CC1 [Example 50, 6-(2-Chloro-6-fluorophenyl)-2-((3-methyl-4-(4-methylpiperazin-1-yl)phenyl)amino)-8,9-dihydroimidazo[1,2-a]pyrimido[5,4-e]pyrimidin-5(6H)-one]
13 | 96 | – | 105 | 66 | 86 | 165 | Cc1cc(Nc2ncc3c(n2)N2CCN=C2N(c2c(F)cccc2Cl)C3=O)ccc1N1C[C@@H](C)N(C)[C@@H](C)C1 [Example 51, 6-(2-Chloro-6-fluorophenyl)-2-((3-methyl-4-((3S,5R)-3,4,5-trimethylpiperazin-1-yl)phenyl)amino)-8,9-dihydroimidazo[1,2-a]pyrimido[5,4-e]pyrimidin-5(6H)-one]
14 | 93 | – | 87.4 | 111 | 80 | 127 | Cc1cc(Nc2ncc3c(n2)N2CCN=C2N(c2c(F)cccc2Cl)C3=O)ccc1N1CCN(C(C)C)CC1 [Example 52, 6-(2-Chloro-6-fluorophenyl)-2-((4-(4-isopropylpiperazin-1-yl)-3-methylphenyl)amino)-8,9-dihydroimidazo[1,2-a]pyrimido[5,4-e]pyrimidin-5(6H)-one]
15 | 91 | – | 85.5 | 13 | 82 | 145 | Cc1cc(Nc2ncc3c(n2)N2CCN=C2N(c2c(F)cccc2Cl)C3=O)ccc1N1C[C@@H](C)N(C(C)C)[C@@H](C)C1 [Example 53, 6-(2-Chloro-6-fluorophenyl)-2-((4-((3S,5R)-4-isopropyl-3,5-dimethylpiperazin-1-yl)-3-methylphenyl)amino)-8,9-dihydroimidazo[1,2-a]pyrimido[5,4-e]pyrimidin-5(6H)-one]
16 | 81 | 1530 | 155 | – | – | – | COc1cc(Nc2ncc3c(n2)N2CCN=C2N(c2c(F)cccc2Cl)C3=O)ccc1N1CCN(C)CC1 [Example 54, 6-(2-Chloro-6-fluorophenyl)-2-((3-methoxy-4-(4-methylpiperazin-1-yl)phenyl)amino)-8,9-dihydroimidazo[1,2-a]pyrimido[5,4-e]pyrimidin-5(6H)-one]
17 | 12 | > 10000 | > 100000 | – | – | – | CN1CCN(c2ccc(Nc3ncc4c(n3)N3CCN=C3N(c3c(F)cccc3Cl)C4=O)cc2[N+](=O)[O-])CC1 [Example 55, 6-(2-Chloro-6-fluorophenyl)-2-((4-(4-methylpiperazin-1-yl)-3-nitrophenyl)amino)-8,9-dihydroimidazo[1,2-a]pyrimido[5,4-e]pyrimidin-5(6H)-one]
18 | 90 | – | 47 | 14 | 80 | 318 | Cc1cc(Nc2ncc3c(n2)N2CCN=C2N(c2c(F)cccc2Cl)C3=O)cc(C)c1N1CCN(C)CC1 [Example 56, 6-(2-Chloro-6-fluorophenyl)-2-((3,5-dimethyl-4-(4-methylpiperazin-1-yl)phenyl)amino)-8,9-dihydroimidazo[1,2-a]pyrimido[5,4-e]pyrimidin-5(6H)-one]
